Measurements from patent US20160115225A1, “Methods of Reducing Methylglyoxal (MGO) Modification of Recombinant Proteins in Cell Culture” (AbbVie Inc., priority 2014, published 2016).

Tests used:
[1] = test system: adalimumab producing cell line 1; assay: WCX-10 quantification of acidic species of adalimumab, bioreactor culture, cell line 1; type: cell-based
Procedure: Two adalimumab producing cell lines were employed in the studies covered here. Upon thaw, cells were cultured in their respective growth media in a combination of vented non-baffled shake flasks (Corning) on a shaker platform at 110 RPM (cell line 1) and 140 RPM (cell line 2) and 10 L or 20 L wave bags (GE). Cultures were propagated in a 35° C., 5% CO2 incubator for cell line 1 and 36° C., 5% CO2 incubator for cell line 2 to obtain the required number of cells to be able to initiate production stage cultures. For the bioreactor (3 L Applikon) experiments (Examples 1, 2 and 3), 3 L, bioreactors (1.5 L working volume) were initiated at 35° C. (cell line 1) and 36° C. (cell line 2), 30% DO, 200 rpm, pH of 7.1. In some of the conditions, pH was ramped down to 6.8 in three days and kept at pH 6.8 thereafter. The inclusion of pH ramp for a particular condition is indicated by the final pH in the experimental design. If the final pH is 7.1, then it indicates no pH ramp was performed, whereas if the final pH is 6.8, a pH ramp was performed on day 3 from pH 7.1 to pH 6.8. In some of the conditions, a temperature shift was performed. When temperature shift was performed, the temperature was lowered to 33° C. Again, the conditions where such a temperature shift was performed can be identified from the final temperature in the experimental design. Cultures were run in extended batch mode with the addition of a desired amount of 40% glucose stock solution was fed based on glucose measurements. The harvest procedure of the reactors involved centrifugation of the culture sample at 3,000 RPM for 30 min and storage of supernatant in PETG bottles at −80° C. before submission for protein A purification, WCX-10 analysis and Lys-C peptide mapping. This method is employed towards the quantification of the acidic species and other charge variants present in cell culture harvest samples. Cation exchange chromatography was performed on a Dionex ProPac WCX-10, Analytical column (Dionex, Calif.). The mobile phases used were 10 mM Sodium Phosphate dibasic pH 7.5 (Mobile phase A) and 10 mM Sodium Phosphate dibasic, 500 mM Sodium Chloride pH 5.5 (Mobile phase B). A binary gradient (94% A, 6% B: […]; 84% A, 16% B: 20-22 min; 0% A, 100% B: 22-28 min; 94% A, 6% B: 28-34 min) was used with detection at 280 nm. Quantitation is based on the relative area percent of detected peaks. The peaks that elute at relative residence time earlier than the main peak corresponding to the drug product are together represented as the acidic peaks. Cell line 1 was cultured in IVGN production medium supplemented with or without 2DDG (0.25 g/l). Prior to this experiment, a study was performed in a shake flask culture to evaluate the dose effect of 2DDG on this cell line and optimize a dose range of reactor evaluation (data not shown). In this experiment, the cultures were performed in 3 L bioreactors in batch format (pH 7.1, DO—30%, 200 rpm) with only glucose feed as described in Example 1. Temperature shift was implemented in some tests (35° C. to 33° C. on day 5 of culture). Both 2DDG supplementation and temperature shift were employed as methods to reduce glucose consumption of the cells in culture. The hypothesis was that the reduction in glucose consumption will translate into reduced synthesis of MGO in cell culture. As a result, a reduction in MGO modification and acidic species of the protein would be achieved. In this experiment, the cultures were performed in 3 L bioreactors in batch format (DO—30%, 200 rpm) with only glucose feed as described in the materials and methods. The control condition was run at a constant temperature of 35° C., constant pH of 7.1 without any supplementation of 2DDG or arginine (condition #10). […]

[2] = test system: adalimumab producing cell line 1; assay: Cell growth, viability and titer, bioreactor culture, cell line 1; type: cell-based; details: Example 2; 2DDG 0.25 g/l; versus control
Procedure: For the bioreactor (3 L Applikon) experiments (Examples 1, 2 and 3), 3 L, bioreactors (1.5 L working volume) were initiated at 35° C. (cell line 1) and 36° C. (cell line 2), 30% DO, 200 rpm, pH of 7.1. In some of the conditions, pH was ramped down to 6.8 in three days and kept at pH 6.8 thereafter. The inclusion of pH ramp for a particular condition is indicated by the final pH in the experimental design. If the final pH is 7.1, then it indicates no pH ramp was performed, whereas if the final pH is 6.8, a pH ramp was performed on day 3 from pH 7.1 to pH 6.8. In some of the conditions, a temperature shift was performed. When temperature shift was performed, the temperature was lowered to 33° C. Again, the conditions where such a temperature shift was performed can be identified from the final temperature in the experimental design. Cultures were run in extended batch mode with the addition of a desired amount of 40% glucose stock solution was fed based on glucose measurements. […]
The cells were grown to maximum viable cell densities (VCD) in the range of 10-14×10^6 cells/ml for the different conditions tested. […] Samples were subsequently analyzed using Poros A for titer and WCX-10 post protein A purification. Based on the WCX-10 chromatograms, the percentages of total peak(s) area corresponding to the acidic species were quantified. […]

O=CC[C@@H](O)[C@H](O)[C@H](O)CO [Test 2DDG, 2-Deoxy-D-Glucose]
percentage of acidic species ([1]; Example 2, 2DDG 0.25 g/l with temperature shift 35° C. to 33° C. on day 5, Day 10 harvest, control 26.6%): 17.4%
percentage of acidic species ([1]; Example 2, 2DDG 0.25 g/l, no temperature shift, Day 10 harvest, control 26.6%): 22.9%
percentage of acidic species ([1]; Example 3, 2DDG 0.25 g/l alone, day 11 harvest, control 68.4%): 48.5%
percentage of acidic species ([1]; Example 3, 2DDG 0.25 g/l and temperature shift, day 11 harvest, control 68.4%): 22.7%
percentage of acidic species ([1]; Example 3, 2DDG, temperature shift and arginine supplementation (4 g/l), day 11 harvest): 12.6%
percentage of acidic species ([1]; Example 3, 2DDG, temperature shift and lower pH (6.8), day 11 harvest): 15.2%
percentage of acidic species ([1]; Example 3, 2DDG, temperature shift, lower pH and arginine supplementation, day 11 harvest): 12.0%
cell growth and viability profile [2]: slight increase
